Measured values reported in patent US20100311726A1, “REDUCTION OF BETA-AMYLOID LEVELS BY TREATMENT WITH THE SMALL MOLECULE DIFFERENTIATION-INDUCING FACTOR” (priority 2007, published 2010).
“Also recorded” adds a separate entry of the source.

How the values were obtained:
Format in all cases: cell-based, human
[1] = tested on: APP; assay: APP processing (mature APP, αCTF, βCTF) by western blot
Protocol: Total protein was collected in RIPA buffer plus protease inhibitors on ice and briefly sonicated. They lysate was centrifuged at 14,000 rpm for 15 minutes. […] After washing, the blots were probed with a polyclonal HRP-tagged secondary Ab (1:5000) for 1 hour at room temperature then visualized.
A second possibility is that DIF-1 potentiates the activity of y-secretase and processing of αCTFs and βCTFs. To assess this latter possibility, we examined the effect of DIF-1 in the presence of DAPT, a potent γ-secretase inhibitor. Even numbers of CHO-7W cells were plated in 6-well dishes and allowed to grow overnight. The next day, the media was removed and replaced with control media (2 ml) or media containing DAPT, DIF-1 or DAPT and DIF-1. […] After washing, blots were probed with HRP-conjugated secondary antibodies (1:5000) for 1 hour at room temperature. […] It would appear that the mechanism of DIF-1 on APP metabolism is not likely to involve γ-secretase activity, but might impact on either BACE1 levels or activity.
To evaluate this probability, we treated CHO-CAB cells that overexpress human APP^751 and human BACE1 with 30 μM of DIF-1. More specifically, even numbers of CHO-CAB cells were plated in 6-well dishes and allowed to grow overnight. The next day, the media was removed and replaced with control media (2 ml) or media containing DAPT, DIF-1 or DAPT and DIF-1. […] After washing, blots were probed with HRP-conjugated secondary antibodies (1:5000) for 1 hour at room temperature. Each treatment is shown above the blot. […] It would appear that DIF-1 has a greater effect on APP maturation in CHO-CAB cells. Longer exposures reveal the presence of mature APP bands in DIF-1 treated cells.
Next dose-dependent effects of DIF-1 on APP processing were examined. Even numbers of CHO-CAB cells were plated in 6-well dishes and allowed to grow overnight. The next day, cells were treated overnight with either vehicle or increasing concentrations of DIF-1 (5-30 μM).

[2] = tested on: APPT668A and APPT668E; assay: APP processing in CHO cells expressing APP T668A or T668E; details: 30 μM
Source text: To assess whether or not the decrease in phosphorylated APP seen in DIF-1 treated cells contributed mechanistically to the reduction of maturation, secretion and metabolic processing of APP^751, mutants were generated using APP^751 in which T724 (APP^751 numbering) was mutated to either an alanine residue such that phosphorylation could not occur, or a glutamic acid residue that should mimic constitutive phosphorylation of APP. APP^751, Isoform B, NM_201413 was used as a template. We essentially used Stratagene's QuickChange® Site-Directed Mutagenesis Kit (Catalog #200518) to create the desired mutations as recommended by the manufacturer with the following exceptions. The APP^751 codon for threonine 724 (ACC) was mutated to code for Alanine (A) (GCC) and Glutamic Acid (E) (GAA), respectively. The following mutagenesis primers were used to create each mutation. […]
Cells were diluted and plated in multiple 10 cm tissue culture dishes and allowed to recover overnight in Dulbecco's modified Eagle's medium containing 4.5 mg/ml D-glucose supplemented with 10% fetal bovine serum and 100 units/ml penicillin, 100 μg/ml streptomycin, 2 mM L-glutamine (Sigma) at 37° C. in a 5% CO2 atmosphere. […] Protein extracts were assessed for APPT724A and APPT724E expression levels compared to naïve cells by western blot using polyclonal anti-APP C-terminal antibodies (C66). […]

[3] = tested on: APP; assay: APP processing (mature APP, αCTF, βCTF) by western blot; details: CHO-CAB

CCCCCC(=O)c1c(O)c(Cl)c(OC)c(Cl)c1O [DIF-1, 1-[3,5-dichloro-2,6-dihydroxy-4-methoxyphenyl]-1-hexanone]
APP maturation and αCTF and βCTF levels ([1]; CHO-7W, 30 μM DIF-1 alone): significant decrease in APP maturation and both αCTF and βCTF production; also recorded: significant decreases in both αCTF and βCTF levels
αCTF and βCTF levels, simultaneous treatment with DAPT ([1]; CHO-7W, 30 μM DIF-1 plus 250 nM DAPT): increased, but not to the level seen with DAPT alone
effect on APP metabolism with BACE1 overexpression ([1]; CHO-CAB, 30 μM): did not repress the effects of DIF-1 on APP metabolism
dose dependence of αCTF and βCTF reduction ([1]; CHO-CAB, 5-30 μM): reduced both αCTFs and βCTFs in a dose-dependent manner
concentration required to have an effect on mature APP levels ([1]; CHO-CAB, 5-30 μM overnight): ~20 µM
effect of DIF-1 on APP maturation and CTFs in T668A or T668E mutant APP [2]: completely abolished the effect of DIF-1 on APP maturation and the reduction of both αCTF and βCTF levels
effect on lactacystin-induced CTF accumulation ([3]; 30 μM DIF-1 with 10 μM lactacystin): greatly reduced the effect of lactacystin
effect on ALLN-induced CTF accumulation ([3]; DIF-1 with 10 μM ALLN): reduced the effect of ALLN on APP processing
